Results taken from article PMC8284004, “Electrospun wound dressings containing bioactive natural products: physico-chemical characterization and biological assessment” (Biomaterials Research, 2021).
Like-named read-outs stand apart in the source and are kept apart here. Marks after values point to notes of the source that are not given here.

What was measured:
Hs27 fibroblasts = test: SAR study of A/S derivatives on Hs27 metabolic activity (MTT); conditions: for Effect on Hs27 cell viability: 24 h, MTT, vs untreated cells
Experimental: (§1) In this regard, each compound was first dissolved in DMSO and further diluted with DMEM up to the desired concentrations (< 0.1% v/v DMSO to avoid toxicity). […] After the respective incubation times, the metabolic activity was evaluated by MTT assay as described in the previous section. Untreated cells served as controls.

S. epidermidis LMG 10474 = test: Kirby-Bauer disc diffusion; format: cell-based, Staphylococcus epidermidis; conditions: for zone of inhibition at 30 µg/disc: Staphylococcus epidermidis; for Inhibition zone: 53 μM/disc (30 μg/disc for dimeric A/S, 15 μg/disc for shikonin and alkannin)
Experimental: (§2) The antibacterial activity of neat and A/S mixture-loaded fibrous scaffolds was evaluated against the Gram-positive strains, Staphylococcus epidermidis LMG 10474 and S. aureus LMG 8224, implementing the Kirby-Bauer disc diffusion method. The bacteria were cultured onto nutrient agar plates (24 h at 37 °C) and then a dense bacterial suspension was made by transferring a small portion of staphylococci (10 μL) with an inoculating loop to 1 mL of sterile PBS. Next, 100 μL of this suspension were spread to Mueller-Hinton (MH) agar plates for conducting the test. UV-sterilized nanofibers with an average diameter of 8 mm were placed on the surface of inoculated MH plates. The plates were incubated for a period of 24 h at 37 °C. […] After 24 h, the antibacterial activity was evaluated by measuring the inhibition zone of the bacteria in millimeters.

S. aureus LMG 8224 = test: Kirby-Bauer disc diffusion; format: cell-based, Staphylococcus aureus; conditions: for zone of inhibition at 30 µg/disc: Staphylococcus aureus; for Inhibition zone: 53 μM/disc (30 μg/disc for dimeric A/S, 15 μg/disc for shikonin and alkannin)
Experimental: as §2

human skin fibroblasts = system: human skin fibroblasts; parameters: method as in PMID 25234005; conditions: non-selective toxicity towards normal cell lines ref 42; cited from earlier work
[1] = system: human gingival fibroblasts; parameters: method as in PMID 31574951; conditions: at 1 μΜ ref 39; cited from earlier work
[2] = system: granuloma tissue in Wistar rats; parameters: method as in PMID 9586574; conditions: dose-dependent ref 41; cited from earlier work
S. aureus = system: S. aureus; parameters: method as in PMID 760130, PMID 5066306; conditions: cited from earlier work
[3] = n-octanol/water (1:1, v/v) ref Ordoudi et al. [24]; cited from earlier work
keratinocytes = system: keratinocytes; parameters: method as in PMID 27725239; conditions: at 1.5 and 3 μΜ ref 40; cited from earlier work
[4] = SAR study of A/S derivatives on Hs27 metabolic activity (MTT); conditions: human
Experimental: as §1

S. epidermidis = system: S. epidermidis; parameters: method as in PMID 760130, PMID 5066306; conditions: cited from earlier work
[5] = LMG10474, 30 μg/disc on 8 mm filter paper, 24 h, read-out: Zone of inhibition
[6] = LMG8224, 30 μg/disc on 8 mm filter paper, 24 h, read-out: Zone of inhibition

Compound	zone of inhibition at 30 µg/disc (S. epidermidis LMG 10474; [5])	zone of inhibition at 30 µg/disc (S. aureus LMG 8224; [6])	Effect on Hs27 cell viability (Hs27 fibroblasts; 1 μM)	Inhibition zone (S. epidermidis LMG 10474)	zone of inhibition at 30 µg/disc (S. epidermidis LMG 10474; LMG10474, 24 h)	Inhibition zone (S. aureus LMG 8224)	zone of inhibition at 30 µg/disc (S. aureus LMG 8224; LMG8224, 24 h)	IC50 (human skin fibroblasts)	Proliferation of granuloma tissue [2]	Growth inhibition (S. aureus)	Log P [3]	other results
CC(C)=CCC(OC(=O)CC(C)C)C1=CC(=O)c2c(O)ccc(O)c2C1=O (stereo not shown) [Isovaleryl-shikonin, isovaleryl-shikonin]	11.1 ± 0.94 mm	9.13 ± 0.51 mm	–	–	–	–	–	–	–	–	–	Proliferation rate ranking (Hs27 fibroblasts; day 3, isovaleryl-shikonin at 500 nM and 1 μM, dimeric A/S at 1 μM): highest proliferation rates
CC(C)=CC[C@@H](O)C1=CC(=O)c2c(O)ccc(O)c2C1=O [Shikonin, shikonin]	–	–	significant decrease in cell number	10.77 ± 1.07 mm	14.8 ± 2.12 mm	11.08 ± 0.26 mm	12.3 ± 0.64 mm	1200 ± 100 nM	succeeded in accelerating (dose-dependently) the proliferation of granuloma tissue	inhibited the growth	−0.27 ^c	Effect on Hs27 cell viability (Hs27 fibroblasts; 500 nM): significant decrease in cell number; In vitro migration [1]: enhanced the in vitro migration
CC(=O)O[C@H](CC=C(C)C)C1=CC(=O)c2c(O)ccc(O)c2C1=O [Acetyl-shikonin, acetyl-shikonin]	–	–	–	–	14.1 ± 1.25 mm	–	11.9 ± 1.43 mm	–	–	inhibited the growth	0.66 ^c	–
CC(C)=CCCC1=CC(=O)c2c(O)ccc(O)c2C1=O [Deoxy-shikonin, deoxy-shikonin]	–	–	–	–	13.2 ± 0.22 mm	–	12.4 ± 0.23 mm	–	–	–	1.08^c	In vitro migration (keratinocytes): enhanced the in vitro migration
CC(C)=CC[C@H](O)C1=CC(=O)c2c(O)ccc(O)c2C1=O [Alkannin, alkannin]	–	–	significant decrease in cell number	10.69 ± 1.01 mm	15.2 mm	10.74 ± 0.74 mm	12.7 ± 0.58 mm	1500 ± 100 nM	succeeded in accelerating (dose-dependently) the proliferation of granuloma tissue	–	−0.27 ^c	viability at 3 days, 0.5 µM [4]: > 110%; Zone of inhibition (S. epidermidis LMG 10474; 30 μg/disc on 8 mm filter paper, 24 h): 15.16 ± 0.66 mm
CC(C)=CCC(OC(=O)C=C(C)C)C1=CC(=O)c2c(O)ccc(O)c2C1=O (stereo not drawn) [β,β-Dimethyl-acryl-shikonin, β,β-dimethyl-acryl-shikonin]	10.6 ± 0.57 mm	8.98 ± 0.17 mm	–	–	–	–	–	–	–	effective	1.38 ^c	Growth inhibition (S. epidermidis): effective
